Measurements as given in patent US20260027131A1, “PRODRUGS, PRODRUG COMPOSITIONS AND RELATED METHODS” (Praesidia Biotherapeutics Inc., priority 2022, published 2026).
Read-outs that look alike come from different tables or passages of the source.

What was measured:
[1] = Rat plasma stability; assay type: in vitro ADME; details: for Rat plasma stability: Table 6, unit not given; for half-life at 5 μM: rat, plasma
Protocol: Rat and human plasma were obtained from qualified vendors. […] The assay was performed in duplicate.

[2] = Human plasma stability
Protocol: (§2) Rat and human plasma were obtained from qualified vendors. 5 μL of 500 μM of the test article solution was added to 495 μL of pre-incubated human or rat plasma to reach a final concentration of 5 μM. The final concentration of organic solvents was not more than 0.5%. The assay was performed in duplicate. The reaction samples were incubated in a 37° C. water bath with shaking at approximately 60 rpm. 50 μL of the reaction samples were collected at 0, 30, 60, 120 and 180 minutes. The reaction was stopped by adding 300 μL of room temperature quench solution (acetonitrile containing internal standards (IS, 200 nM labetalol, 100 nM alprazolam and 2 μM ketoprofen)). The samples were vortexed for 5 minutes followed by centrifugation of the samples at 3,220 g for 30 minutes at room temperature to precipitate the protein. 100 μL of the supernatant was transferred to a new plate and diluted with 100 μL or 200 μL water according to the LC/MS signal response and peak shape. The samples were mixed well and analyzed using LC/MS/MS. The remaining percentage of parent drug versus reaction time was used to calculate the t1/2 value.

[3] = test system: Caco-2 cell monolayers; experiment: Permeability study using Caco-2 cell monolayers; details: 2 hours; for Permeability A-B: apical to basolateral; for Permeability B-A: basolateral to apical
Protocol: (§3) CaCO-2 cells were cultured, and a monolayer was developed in-house in 96 well-plates over 18 days using standard protocol. The monolayer was tested for the integrity of the cell monolayer before using.
(§4) Test compounds were added to the transwell insert (apical compartment) to determine the rate of drug transport in the apical to basolateral direction. To determine the rate of drug transport in the basolateral to apical direction, the test compound was added to the receiver plate wells (basolateral compartment). Appropriate amount of HBSS (10 mM HEPES, pH 7.4) was added in both compartments for a final volume of 200 μL. The plates were incubated at 37° C. with shaking at 150 rpm on a rotary shaker for 2 hours. At the end of the transport period, 50 μL from the apical and basolateral wells were collected and 4 volume of cold acetonitrile containing internal standards (IS: 100 nM alprazolam, 200 nM labetalol, and 2 μM ketoprofen) was added to each sample to terminate the reaction. The samples were vortexed and centrifuged at 3,800 g for 20 minutes. An aliquot of 150 μL of the supernatant was used for LC/MS/MS analysis. All samples were analyzed in duplicates. Samples were analyzed through LC/MS/MS for estimating the permeability and efflux of the compounds across Caco-2 cell monolayers.

[4] = Permeability study using Caco-2 cell monolayers; details: human, Caco-2, pH 7.4
Protocol: as §3, §4

[5] = Pharmacokinetic studies in rats: plasma and lung; details: rat, single i.v., 2 mg/kg dexamethasone equivalent
Protocol: (§1) Six to eight weeks old Sprague-Dawley rats were procured from a qualified provider. Test compounds were introduced in rats by a single intravenous administration. […] Blood samples (0.1, 0.2 or 0.5 mL) were collected with a 1 mL syringe containing anticoagulants K2EDTA. Blood samples were centrifuged to obtain plasma for analysis. […] After collection at each time point, lung samples were frozen at −75° C. Prior to analysis, a portion of lung sample was weighed and homogenized with phosphate buffer saline. […] Data analysis and pharmacokinetic parameters were generated using WinNonlin software.

[6] = Metabolic stability in rat liver microsomes; assay type: in vitro ADME; details: rat liver microsomes, 1 μM, NADPH; Table 6, unit not given
Protocol: Rat liver microsomes were obtained from qualified vendors and metabolic stability of the test compound was determined at 1 μM. The compound was incubated at 37° C. with 0.5 mg microsome/mL in the buffer in the presence of 1 mM NADPH. Aliquots of 50 μL were taken from the reaction solution at 0, 15, 30, 45 and 60 minutes. […] All samples were analyzed in duplicates.

[7] = Chemical stability at pH 4.5 and pH 7.4 in PBS; assay type: physicochemical; details: for Chemical Stability, pH 4.5: PBS pH 4.5, 37° C.; for Chemical Stability, pH 4.5 / Chemical Stability, pH 7.4: 5 μM, up to 240 min; for Chemical Stability, pH 7.4: PBS pH 7.4, 37° C.; for Chemical stability: Table 6, pH not stated
Protocol: The assay was performed in duplicate. […] Samples were incubated at 37° C. at 600 rpm.

[8] = biological target: T1, Glucocorticoid receptor (GR) (Homo sapiens, UniProt P04150); experiment: TR-FRET GR competitive binding assay; details: 0.1 μM
T1 sequence (P04150 1-777): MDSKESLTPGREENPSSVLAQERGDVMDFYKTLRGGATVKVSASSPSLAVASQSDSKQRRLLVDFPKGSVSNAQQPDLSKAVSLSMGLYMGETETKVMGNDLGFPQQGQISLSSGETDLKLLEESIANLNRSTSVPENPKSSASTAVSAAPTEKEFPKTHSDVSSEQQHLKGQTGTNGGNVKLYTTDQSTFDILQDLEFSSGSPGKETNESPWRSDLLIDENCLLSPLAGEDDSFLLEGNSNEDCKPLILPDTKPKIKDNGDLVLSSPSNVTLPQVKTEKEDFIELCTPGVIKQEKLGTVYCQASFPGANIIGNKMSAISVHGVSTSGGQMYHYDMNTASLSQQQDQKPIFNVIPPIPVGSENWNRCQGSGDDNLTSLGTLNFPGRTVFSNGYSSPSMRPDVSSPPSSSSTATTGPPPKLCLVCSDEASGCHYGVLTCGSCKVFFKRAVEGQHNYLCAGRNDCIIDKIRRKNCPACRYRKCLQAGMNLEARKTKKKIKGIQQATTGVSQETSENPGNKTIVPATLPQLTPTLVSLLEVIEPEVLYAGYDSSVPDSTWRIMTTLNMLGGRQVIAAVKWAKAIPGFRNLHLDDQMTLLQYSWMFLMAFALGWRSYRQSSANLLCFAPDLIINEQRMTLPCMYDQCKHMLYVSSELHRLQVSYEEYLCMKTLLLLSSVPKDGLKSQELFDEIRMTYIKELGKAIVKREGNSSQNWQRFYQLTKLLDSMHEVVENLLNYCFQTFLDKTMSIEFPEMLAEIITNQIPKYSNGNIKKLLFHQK
Protocol: Glucocorticoid receptor (GR) binding of prodrugs was determined using TR-FRET GR competitive binding assay. Three-point (0.1, 1 and 10 μM) binding was evaluated for each prodrug.

[9] = Sprague-Dawley, rat, in vivo, iv, 2 mg/kg
Protocol: as §1, with “1 ml” for “1 mL”, “of brain” for “of lung”

[10] = in vitro; details: human, plasma
Protocol: as §2

Row | Structure (SMILES) | Rat plasma stability [1] | half-life at 5 μM [2] | Permeability A-B [3] | Permeability B-A [3] | efflux ratio at 2 h [4] | Conc in Prodrug in lung ([5]; 15 min) | Conc of Prodrug in plasma ([5]; 15 min) | Conc in Prodrug in lung ([5]; 60 min) | Conc of Prodrug in plasma ([5]; 60 min) | Conc in Prodrug in lung ([5]; 360 min) | Conc of Prodrug in plasma ([5]; 360 min) | RLM [6] | Chemical Stability, pH 4.5 [7] | Chemical Stability, pH 7.4 [7] | Chemical stability [7] | also measured
1 | COc1cccc(NC(=O)[C@@H](N)C(C)C)c1C(=O)OCC(=O)[C@@]1(O)[C@H](C)CC2[C@@H]3CCC4=CC(=O)C=C[C@]4(C)[C@@]3(F)[C@@H](O)C[C@@]21C.Cl (stereo partly drawn) [Compound 9] | >240 | > 4 h | A-B = 0.025 × 10^−6, cm/s | B-A = 7 × 10^−6, cm/s | 279 | 992 ± 422 | 694 ± 83 | 959 ± 283 | 244 ± 13 | 433 ± 212 | 21 ± 1.5 | 24 | Yes | Yes | Yes | –
2 | CC(C)[C@H](N)C(=O)Nc1ccccc1C1(C(=O)OCC(=O)[C@@]2(O)[C@H](C)C[C@H]3[C@@H]4CCC5=CC(=O)C=C[C@]5(C)[C@@]4(F)[C@@H](O)C[C@@]32C)CC1.Cl [Compound 25] | >240 | > 4 h | A-B = 0.065 × 10^−6, cm/s | B-A = 11 × 10^−6, cm/s | 170 | 3895 ± 368 | 742 ± 96 | 5827 ± 1483 | 367 ± 55 | 1425 ± 509 | 34 ± 10 | 38 | Yes | Yes | Yes | half-life at 5 μM ([1]; read-out: Rat Plasma Stability t½): > 4 h; GR Binding Data [8]: 19%
3 | CC(C)C(C(=O)N1CCCC1C(=O)N(C)CC(C)(C)C(C)C(=O)OCC(=O)[C@@]1(O)[C@H](C)C[C@H]2[C@@H]3CCC4=CC(=O)C=C[C@]4(C)[C@@]3(F)[C@@H](O)C[C@@]21C)N(C)C (stereo partly drawn) [Compound 33] | – | – | – | – | – | – | – | – | – | – | – | – | – | – | – | half-life at 5 μM [1]: > 4 h; Conc of Dex in plasma [9]: 18.8 ± 7.75; Conc of Prodrug in plasma [9]: 6549 ± 1537; half-life at 5 μM [10]: > 4 h
